From the kinase profiling compilation of Christmann-Franck et al. (2016)

Experiments:
Assay in all cases: KINOMEscan competition binding
Details in all cases: compound 10.0 µM
ACVR1 (human) = ACVR1 (human) (UniProt Q04771)
BRSK1 (human) = BRSK1 (human) (UniProt Q8TDC3)
CAMKK2 (human) = CAMKK2 (human) (UniProt Q96RR4)
CDKL2 (human) = CDKL2 (human) (UniProt Q92772)
CSNK1E (human) = CSNK1E (human) (UniProt P49674)
DDR1 (human) = DDR1 (human) (UniProt Q08345)
DMPK (human) = DMPK (human) (UniProt Q09013)
EGFR (human) = EGFR (human) (UniProt P00533)
[1] = tested on: EGFR (human), P00533 [747-751 del / S ins]
EPHB2 (human) = EPHB2 (human) (UniProt P29323)
IKBKE (human) = IKBKE (human) (UniProt Q14164)
[2] = biological target: JAK2 JH1 catalytic (human) (UniProt O60674)
[3] = tested on: KIT (human), P10721 [V559D/V654A]
MAPK11 (human) = MAPK11 (human) (UniProt Q15759)
MAPKAPK2 (human) = MAPKAPK2 (human) (UniProt P49137)
MARK1 (human) = MARK1 (human) (UniProt Q9P0L2)
MELK (human) = MELK (human) (UniProt Q14680)
MYO3A (human) = MYO3A (human) (UniProt Q8NEV4)
MYO3B (human) = MYO3B (human) (UniProt Q8WXR4)
NEK2 (human) = NEK2 (human) (UniProt P51955)
NTRK1 (human) = NTRK1 (human) (UniProt P04629)
NUAK1 (human) = NUAK1 (human) (UniProt O60285)
PIM3 (human) = PIM3 (human) (UniProt Q86V86)
RIOK3 (human) = RIOK3 (human) (UniProt O14730)
RPS6KA4 KD1 (human) = RPS6KA4 KD1 (human) (UniProt O75676)
RPS6KA4 KD2 (human) = RPS6KA4 KD2 (human) (UniProt O75676)
SGK110 (human) = SGK110 (human) (UniProt P0C264)
STK10 (human) = STK10 (human) (UniProt O94804)
STK24 (human) = STK24 (human) (UniProt Q9Y6E0)
STK3 (human) = STK3 (human) (UniProt Q13188)
TESK1 (human) = TESK1 (human) (UniProt Q15569)
TXK (human) = TXK (human) (UniProt P42681)
ERN1 (human) = ERN1 (human) (UniProt O75460)
HIPK2 (human) = HIPK2 (human) (UniProt Q9H2X6)
HIPK4 (human) = HIPK4 (human) (UniProt Q8NE63)
ICK (human) = ICK (human) (UniProt Q9UPZ9)
STK38 (human) = STK38 (human) (UniProt Q15208)

Chain of MELK (human) (Q14680 whole entry, looked up): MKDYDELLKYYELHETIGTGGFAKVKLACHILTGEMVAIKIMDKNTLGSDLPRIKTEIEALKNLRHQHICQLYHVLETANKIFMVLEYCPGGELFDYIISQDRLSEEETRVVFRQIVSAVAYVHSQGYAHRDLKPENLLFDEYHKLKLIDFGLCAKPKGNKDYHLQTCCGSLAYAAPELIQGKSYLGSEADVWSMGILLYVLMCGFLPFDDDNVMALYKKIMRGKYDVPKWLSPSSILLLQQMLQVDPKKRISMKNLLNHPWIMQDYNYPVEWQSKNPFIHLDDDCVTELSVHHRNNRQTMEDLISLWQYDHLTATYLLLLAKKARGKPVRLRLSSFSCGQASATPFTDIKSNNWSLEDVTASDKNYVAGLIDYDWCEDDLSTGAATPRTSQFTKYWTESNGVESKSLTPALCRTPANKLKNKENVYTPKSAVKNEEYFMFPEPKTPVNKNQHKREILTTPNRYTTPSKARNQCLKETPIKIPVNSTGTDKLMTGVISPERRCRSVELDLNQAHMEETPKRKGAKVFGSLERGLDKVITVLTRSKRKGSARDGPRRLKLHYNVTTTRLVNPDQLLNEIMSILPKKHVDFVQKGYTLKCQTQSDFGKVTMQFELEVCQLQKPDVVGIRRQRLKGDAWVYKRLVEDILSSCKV
Chain of NEK2 (human) (P51955 whole entry, looked up): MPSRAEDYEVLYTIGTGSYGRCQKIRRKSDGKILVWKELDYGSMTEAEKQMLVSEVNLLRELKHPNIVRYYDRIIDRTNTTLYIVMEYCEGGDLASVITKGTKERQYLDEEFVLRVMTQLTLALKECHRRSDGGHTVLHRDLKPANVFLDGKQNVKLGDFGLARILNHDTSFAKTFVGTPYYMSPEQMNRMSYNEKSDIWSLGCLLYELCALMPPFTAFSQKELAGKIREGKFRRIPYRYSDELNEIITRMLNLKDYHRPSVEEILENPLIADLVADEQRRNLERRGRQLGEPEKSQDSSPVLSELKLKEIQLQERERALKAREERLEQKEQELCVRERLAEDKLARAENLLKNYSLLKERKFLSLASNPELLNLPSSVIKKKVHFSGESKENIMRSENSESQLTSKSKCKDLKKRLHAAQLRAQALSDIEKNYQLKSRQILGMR
Chain of IKBKE (human) (Q14164 whole entry, looked up): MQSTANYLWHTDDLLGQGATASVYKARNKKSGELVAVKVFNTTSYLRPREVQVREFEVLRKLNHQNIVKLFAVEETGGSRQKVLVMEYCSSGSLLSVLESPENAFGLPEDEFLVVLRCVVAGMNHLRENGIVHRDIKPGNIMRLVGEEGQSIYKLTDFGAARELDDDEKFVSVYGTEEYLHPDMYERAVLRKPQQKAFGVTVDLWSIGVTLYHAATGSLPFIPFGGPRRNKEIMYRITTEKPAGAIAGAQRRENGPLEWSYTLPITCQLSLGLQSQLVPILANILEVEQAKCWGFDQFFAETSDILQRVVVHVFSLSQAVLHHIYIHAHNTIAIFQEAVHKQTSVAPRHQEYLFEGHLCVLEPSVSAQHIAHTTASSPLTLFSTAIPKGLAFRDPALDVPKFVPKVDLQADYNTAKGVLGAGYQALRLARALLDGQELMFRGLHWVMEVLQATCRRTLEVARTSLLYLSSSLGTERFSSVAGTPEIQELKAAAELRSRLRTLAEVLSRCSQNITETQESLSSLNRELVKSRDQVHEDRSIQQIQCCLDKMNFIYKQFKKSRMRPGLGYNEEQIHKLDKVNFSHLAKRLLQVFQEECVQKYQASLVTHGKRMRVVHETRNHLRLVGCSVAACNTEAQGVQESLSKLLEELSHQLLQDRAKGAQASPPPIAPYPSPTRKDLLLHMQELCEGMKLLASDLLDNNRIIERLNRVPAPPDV
Chain of STK10 (human) (O94804 whole entry, looked up): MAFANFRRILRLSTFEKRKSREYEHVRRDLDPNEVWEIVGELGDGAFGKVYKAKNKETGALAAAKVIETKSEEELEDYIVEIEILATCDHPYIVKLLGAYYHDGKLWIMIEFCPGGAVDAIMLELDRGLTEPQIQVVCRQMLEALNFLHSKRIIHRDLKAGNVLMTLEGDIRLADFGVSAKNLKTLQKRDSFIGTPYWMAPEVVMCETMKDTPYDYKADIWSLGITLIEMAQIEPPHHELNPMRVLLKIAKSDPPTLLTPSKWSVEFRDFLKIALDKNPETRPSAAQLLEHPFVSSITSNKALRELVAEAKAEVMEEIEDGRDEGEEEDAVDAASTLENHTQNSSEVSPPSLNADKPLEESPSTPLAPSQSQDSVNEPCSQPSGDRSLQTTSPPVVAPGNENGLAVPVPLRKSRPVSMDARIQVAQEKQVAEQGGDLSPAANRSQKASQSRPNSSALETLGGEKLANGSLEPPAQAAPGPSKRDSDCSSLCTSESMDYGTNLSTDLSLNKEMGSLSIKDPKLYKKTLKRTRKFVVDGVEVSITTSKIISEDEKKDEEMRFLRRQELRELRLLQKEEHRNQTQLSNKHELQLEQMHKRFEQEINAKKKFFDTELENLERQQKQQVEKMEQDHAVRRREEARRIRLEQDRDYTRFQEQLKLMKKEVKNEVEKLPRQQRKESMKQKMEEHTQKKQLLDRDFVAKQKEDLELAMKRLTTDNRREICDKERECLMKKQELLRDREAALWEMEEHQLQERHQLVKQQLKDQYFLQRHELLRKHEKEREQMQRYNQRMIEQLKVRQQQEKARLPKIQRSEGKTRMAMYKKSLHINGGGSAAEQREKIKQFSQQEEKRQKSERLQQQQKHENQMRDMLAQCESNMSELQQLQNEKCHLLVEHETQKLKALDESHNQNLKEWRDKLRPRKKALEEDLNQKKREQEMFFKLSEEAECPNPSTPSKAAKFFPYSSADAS
Chain of DDR1 (human) (Q08345 whole entry, looked up): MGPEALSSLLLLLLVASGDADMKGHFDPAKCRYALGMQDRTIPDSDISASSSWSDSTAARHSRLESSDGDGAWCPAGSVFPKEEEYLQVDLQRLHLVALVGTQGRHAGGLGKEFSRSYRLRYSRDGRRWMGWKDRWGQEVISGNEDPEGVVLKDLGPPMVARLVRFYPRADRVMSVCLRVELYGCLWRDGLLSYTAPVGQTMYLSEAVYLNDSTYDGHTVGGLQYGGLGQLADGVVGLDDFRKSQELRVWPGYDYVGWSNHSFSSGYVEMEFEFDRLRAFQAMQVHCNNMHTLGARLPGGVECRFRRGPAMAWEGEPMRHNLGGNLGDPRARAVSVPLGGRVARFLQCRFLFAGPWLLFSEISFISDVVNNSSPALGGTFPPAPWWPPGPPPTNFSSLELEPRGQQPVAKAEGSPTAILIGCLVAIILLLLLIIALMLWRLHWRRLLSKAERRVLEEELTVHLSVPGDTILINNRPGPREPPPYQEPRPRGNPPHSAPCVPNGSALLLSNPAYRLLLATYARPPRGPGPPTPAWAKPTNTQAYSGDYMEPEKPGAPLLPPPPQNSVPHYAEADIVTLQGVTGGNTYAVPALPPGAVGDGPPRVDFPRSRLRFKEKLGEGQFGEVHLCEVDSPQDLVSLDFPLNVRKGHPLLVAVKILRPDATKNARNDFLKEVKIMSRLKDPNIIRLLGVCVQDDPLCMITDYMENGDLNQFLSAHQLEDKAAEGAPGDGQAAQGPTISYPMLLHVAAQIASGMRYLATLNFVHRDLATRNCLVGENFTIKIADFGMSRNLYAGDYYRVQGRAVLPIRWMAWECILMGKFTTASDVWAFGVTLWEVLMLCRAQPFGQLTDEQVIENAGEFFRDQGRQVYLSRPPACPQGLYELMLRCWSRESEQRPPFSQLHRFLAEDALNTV
Chain of STK24 (human) (Q9Y6E0 whole entry, looked up): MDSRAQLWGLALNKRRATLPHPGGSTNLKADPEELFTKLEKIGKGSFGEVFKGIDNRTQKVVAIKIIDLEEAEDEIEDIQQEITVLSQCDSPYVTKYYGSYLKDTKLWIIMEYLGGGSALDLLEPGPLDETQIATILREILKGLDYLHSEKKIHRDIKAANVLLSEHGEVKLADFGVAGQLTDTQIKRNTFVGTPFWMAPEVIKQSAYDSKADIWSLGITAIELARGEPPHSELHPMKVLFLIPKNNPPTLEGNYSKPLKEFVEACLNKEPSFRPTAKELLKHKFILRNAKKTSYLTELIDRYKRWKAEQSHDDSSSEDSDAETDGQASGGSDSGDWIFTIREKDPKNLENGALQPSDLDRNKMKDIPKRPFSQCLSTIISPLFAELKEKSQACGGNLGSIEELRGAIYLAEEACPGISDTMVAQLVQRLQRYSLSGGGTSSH
Chain of ACVR1 (human) (Q04771 whole entry, looked up): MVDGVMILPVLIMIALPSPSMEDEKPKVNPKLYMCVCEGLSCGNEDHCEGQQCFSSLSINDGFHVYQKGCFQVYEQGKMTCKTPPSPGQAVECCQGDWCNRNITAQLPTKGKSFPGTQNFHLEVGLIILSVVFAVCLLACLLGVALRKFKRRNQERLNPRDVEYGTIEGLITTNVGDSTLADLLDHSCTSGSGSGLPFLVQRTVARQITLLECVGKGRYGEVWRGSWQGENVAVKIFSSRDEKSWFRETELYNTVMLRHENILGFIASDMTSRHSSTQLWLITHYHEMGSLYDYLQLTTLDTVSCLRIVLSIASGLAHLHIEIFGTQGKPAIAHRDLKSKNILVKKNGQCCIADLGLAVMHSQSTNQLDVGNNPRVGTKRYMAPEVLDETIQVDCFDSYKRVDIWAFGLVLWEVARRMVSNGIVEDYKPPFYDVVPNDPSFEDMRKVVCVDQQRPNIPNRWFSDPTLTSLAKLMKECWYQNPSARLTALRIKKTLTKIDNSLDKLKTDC
Chain of MAPKAPK2 (human) (P49137 whole entry, looked up): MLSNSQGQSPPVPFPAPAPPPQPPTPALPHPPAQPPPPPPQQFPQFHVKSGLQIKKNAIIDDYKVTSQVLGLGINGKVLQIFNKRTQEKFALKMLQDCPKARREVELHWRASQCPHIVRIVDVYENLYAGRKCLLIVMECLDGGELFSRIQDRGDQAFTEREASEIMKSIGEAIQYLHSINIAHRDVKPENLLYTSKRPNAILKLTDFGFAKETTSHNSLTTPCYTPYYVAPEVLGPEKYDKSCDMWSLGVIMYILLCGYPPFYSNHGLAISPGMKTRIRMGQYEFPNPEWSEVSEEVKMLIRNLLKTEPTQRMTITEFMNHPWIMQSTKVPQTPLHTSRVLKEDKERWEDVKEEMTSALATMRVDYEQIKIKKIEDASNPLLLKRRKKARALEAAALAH

| kinase still bound, per cent of control (ACVR1 (human)) [%] | kinase still bound, per cent of control (BRSK1 (human)) [%] | kinase still bound, per cent of control (CAMKK2 (human)) [%] | kinase still bound, per cent of control (CSNK1E (human)) [%] | kinase still bound, per cent of control (DDR1 (human)) [%] | kinase still bound, per cent of control (DMPK (human)) [%] | kinase still bound, per cent of control (EPHB2 (human)) [%] | kinase still bound, per cent of control (IKBKE (human)) [%] | kinase still bound, per cent of control [2] [%] | kinase still bound, per cent of control [3] [%] | kinase still bound, per cent of control (MAPK11 (human)) [%] | kinase still bound, per cent of control (MAPKAPK2 (human)) [%] | kinase still bound, per cent of control (MARK1 (human)) [%] | kinase still bound, per cent of control (MELK (human)) [%] | kinase still bound, per cent of control (MYO3A (human)) [%] | kinase still bound, per cent of control (MYO3B (human)) [%] | kinase still bound, per cent of control (NEK2 (human)) [%] | kinase still bound, per cent of control (NTRK1 (human)) [%] | kinase still bound, per cent of control (NUAK1 (human)) [%] | kinase still bound, per cent of control (PIM3 (human)) [%] | Structure (SMILES) | further results |
| --- | --- | --- | --- | --- | --- | --- | --- | --- | --- | --- | --- | --- | --- | --- | --- | --- | --- | --- | --- | --- | --- |
| 100 | 100 | 100 | 29 | 100 | 10 | 100 | 100 | 1.6 | 100 | 100 | 100 | 26 | 100 | 100 | 100 | 100 | 0.75 | 0.95 | 100 | CNC(=O)c1ccc(Nc2cc(Nc3ccccc3S(=O)(=O)C(C)C)c3cc[nH]c3n2)nc1 | kinase still bound, per cent of control (CDKL2 (human)): 100%; kinase still bound, per cent of control (EGFR (human)): 100%; kinase still bound, per cent of control [1]: 100%; kinase still bound, per cent of control (RIOK3 (human)): 2.9%; kinase still bound, per cent of control (RPS6KA4 KD1 (human)): 2.2%; kinase still bound, per cent of control (RPS6KA4 KD2 (human)): 100%; kinase still bound, per cent of control (SGK110 (human)): 7.4%; kinase still bound, per cent of control (STK10 (human)): 0%; kinase still bound, per cent of control (STK24 (human)): 100%; kinase still bound, per cent of control (STK3 (human)): 0.2%; kinase still bound, per cent of control (TESK1 (human)): 30%; kinase still bound, per cent of control (TXK (human)): 33% |
| 100 | 100 | 100 | 100 | 100 | 100 | 100 | 100 | 100 | 100 | 100 | 100 | 100 | 100 | 100 | 100 | 100 | 100 | 100 | 100 | CS(=O)(=O)N1CCN(Cc2cc3nc(-c4cccc5[nH]ncc45)nc(N4CCOCC4)c3s2)CC1 | kinase still bound, per cent of control (CDKL2 (human)): 100%; kinase still bound, per cent of control (EGFR (human)): 100%; kinase still bound, per cent of control [1]: 100%; kinase still bound, per cent of control (ERN1 (human)): 100%; kinase still bound, per cent of control (HIPK2 (human)): 100%; kinase still bound, per cent of control (HIPK4 (human)): 100%; kinase still bound, per cent of control (ICK (human)): 100%; kinase still bound, per cent of control (RIOK3 (human)): 100%; kinase still bound, per cent of control (RPS6KA4 KD1 (human)): 100%; kinase still bound, per cent of control (RPS6KA4 KD2 (human)): 100%; kinase still bound, per cent of control (SGK110 (human)): 100%; kinase still bound, per cent of control (STK10 (human)): 100%; kinase still bound, per cent of control (STK24 (human)): 100%; kinase still bound, per cent of control (STK3 (human)): 100%; kinase still bound, per cent of control (STK38 (human)): 100%; kinase still bound, per cent of control (TESK1 (human)): 100%; kinase still bound, per cent of control (TXK (human)): 100% |
| 100 | 100 | 100 | 100 | 1.1 | 100 | 100 | 100 | 100 | 100 | 100 | 100 | 100 | 100 | 100 | 100 | 100 | 100 | 100 | 100 | CCN(CC)CCCCNc1ncc2cc(-c3cc(OC)cc(OC)c3)c(NC(=O)NC(C)(C)C)nc2n1 | kinase still bound, per cent of control (RIOK3 (human)): 100%; kinase still bound, per cent of control (RPS6KA4 KD1 (human)): 100%; kinase still bound, per cent of control (RPS6KA4 KD2 (human)): 100%; kinase still bound, per cent of control (STK10 (human)): 100%; kinase still bound, per cent of control (STK24 (human)): 7%; kinase still bound, per cent of control (STK3 (human)): 100%; kinase still bound, per cent of control (TESK1 (human)): 100%; kinase still bound, per cent of control (TXK (human)): 100% |
| 100 | 100 | 100 | 100 | 0 | 100 | 100 | 100 | 100 | 100 | 100 | 100 | 100 | 100 | 100 | 100 | 100 | 100 | 100 | 100 | C=CC(=O)Nc1ccc(CN(C(=O)Nc2c(Cl)c(OC)cc(OC)c2Cl)c2cc(Nc3ccc(N4CCN(C)CC4)cc3)ncn2)cc1 | kinase still bound, per cent of control (CDKL2 (human)): 0.35%; kinase still bound, per cent of control (EGFR (human)): 0.35%; kinase still bound, per cent of control [1]: 0.65%; kinase still bound, per cent of control (RIOK3 (human)): 100%; kinase still bound, per cent of control (RPS6KA4 KD1 (human)): 100%; kinase still bound, per cent of control (RPS6KA4 KD2 (human)): 100%; kinase still bound, per cent of control (SGK110 (human)): 100%; kinase still bound, per cent of control (STK10 (human)): 0.1%; kinase still bound, per cent of control (STK24 (human)): 18%; kinase still bound, per cent of control (STK3 (human)): 100%; kinase still bound, per cent of control (TESK1 (human)): 100%; kinase still bound, per cent of control (TXK (human)): 16% |

| Structure (SMILES) | kinase still bound, per cent of control (ACVR1 (human)) [%] | kinase still bound, per cent of control (BRSK1 (human)) [%] | kinase still bound, per cent of control (CAMKK2 (human)) [%] | kinase still bound, per cent of control (CSNK1E (human)) [%] | kinase still bound, per cent of control (DDR1 (human)) [%] | kinase still bound, per cent of control (DMPK (human)) [%] | kinase still bound, per cent of control (EPHB2 (human)) [%] | kinase still bound, per cent of control (IKBKE (human)) [%] | kinase still bound, per cent of control [2] [%] | kinase still bound, per cent of control [3] [%] | kinase still bound, per cent of control (MAPK11 (human)) [%] | kinase still bound, per cent of control (MAPKAPK2 (human)) [%] | kinase still bound, per cent of control (MARK1 (human)) [%] | kinase still bound, per cent of control (MELK (human)) [%] | kinase still bound, per cent of control (MYO3A (human)) [%] | kinase still bound, per cent of control (MYO3B (human)) [%] | kinase still bound, per cent of control (NEK2 (human)) [%] | kinase still bound, per cent of control (NTRK1 (human)) [%] | kinase still bound, per cent of control (NUAK1 (human)) [%] | kinase still bound, per cent of control (PIM3 (human)) [%] | further results |
| --- | --- | --- | --- | --- | --- | --- | --- | --- | --- | --- | --- | --- | --- | --- | --- | --- | --- | --- | --- | --- | --- |
| Cc1n[nH]c2ccc(-c3cncc(OC[C@@H](N)Cc4c[nH]c5ccccc45)c3)cc12 | 100 | 100 | 2 | 0.05 | 100 | 0.8 | 100 | 24 | 100 | 100 | 100 | 100 | 100 | 12 | 100 | 100 | 100 | 100 | 100 | 0.75 | kinase still bound, per cent of control (CDKL2 (human)): 5.2%; kinase still bound, per cent of control (RIOK3 (human)): 2.7%; kinase still bound, per cent of control (RPS6KA4 KD1 (human)): 100%; kinase still bound, per cent of control (RPS6KA4 KD2 (human)): 9.9%; kinase still bound, per cent of control (SGK110 (human)): 100%; kinase still bound, per cent of control (STK10 (human)): 100%; kinase still bound, per cent of control (STK24 (human)): 100%; kinase still bound, per cent of control (STK3 (human)): 0.35%; kinase still bound, per cent of control (TESK1 (human)): 100%; kinase still bound, per cent of control (TXK (human)): 100% |
